Values after ≈ are worked out from the molar mass of the structure shown.
Legend:
Assay type in all cases: functional
Enterobacter cloacae [1] = assay: Antibacterial activity against Enterobacter cloacae El3518 transconjugant harboring IncL/M plasmid and blaIMP-4-qacG2-aacA4-catB3 array by Etest method in presence of clavulanic acid
Morganella morganii [2] = assay: Antibacterial activity against Morganella morganii isolate Mm1614 harboring IncL/M plasmid and blaIMP-4-qacG2-aacA4-catB3 array by Etest method in presence of clavulanic acid
Enterobacter cloacae [3] = assay: Antibacterial activity against Enterobacter cloacae El1573 transconjugant harboring IncL/M plasmid and blaIMP-4-qacG2-aacA4-catB3 array by Etest method in presence of clavulanic acid
Acinetobacter = assay: Antibacterial activity against Acinetobacter isolate A74510 harboring blaIMP-4-qacG2-aacA4-catB3 array by Etest method in presence of clavulanic acid
Enterobacter cloacae [4] = assay: Antibacterial activity against Enterobacter cloacae isolate El3280 harboring IncL/M plasmid and blaIMP-4-qacG2-aacA4-catB3 array by Etest method in presence of clavulanic acid
Klebsiella pneumoniae [5] = assay: Antibacterial activity against Klebsiella pneumoniae Kp204 transconjugant harboring IncA/C plasmid and blaIMP-4-qacG2-aacA4-catB3 array by Etest method in presence of clavulanic acid
Citrobacter youngae [6] = assay: Antibacterial activity against Citrobacter youngae CyB38 transconjugant harboring blaIMP-4-qacG2-aacA4-catB3 array by Etest method in presence of clavulanic acid
Escherichia coli [7] = assay: Antibacterial activity against Escherichia coli isolate Ec221 harboring IncA/C plasmid and blaIMP-4-qacG2-aacA4-catB3 array by Etest method in presence of clavulanic acid
Klebsiella oxytoca [8] = assay: Antibacterial activity against Klebsiella oxytoca isolate Ko0426 harboring IncL/M plasmid and blaIMP-4-qacG2-aacA4-catB3 array by Etest method in presence of clavulanic acid
Acinetobacter baumannii = assay: Antibacterial activity against Acinetobacter baumannii isolate AbN450 harboring blaIMP-4-qacG2-aacA4-catB3 array by Etest method in presence of clavulanic acid
Klebsiella pneumoniae [9] = assay: Antibacterial activity against Klebsiella pneumoniae Kp38009 transconjugant harboring IncL/M plasmid and blaIMP-4-qacG2-aacA4-catB3 array by Etest method in presence of clavulanic acid
Escherichia coli [10] = assay: Antibacterial activity against Escherichia coli isolate Ec158 harboring IncA/C plasmid and blaIMP-4-qacG2-aacA4-catB3 array by Etest method in presence of clavulanic acid
Serratia marcescens [11] = assay: Antibacterial activity against Serratia marcescens Sm265 transconjugant harboring IncA/C plasmid and blaIMP-4-qacG2-aacA4-catB3 array by Etest method in presence of clavulanic acid
Klebsiella pneumoniae [12] = assay: Antibacterial activity against Klebsiella pneumoniae isolate Kp149 harboring IncA/C plasmid and blaIMP-4-qacG2-aacA4-catB3 array by Etest method in presence of clavulanic acid
Klebsiella oxytoca [13] = assay: Antibacterial activity against Klebsiella oxytoca isolate Ko238 harboring IncA/C plasmid and blaIMP-4-qacG2-aacA4-catB3 array by Etest method in presence of clavulanic acid
Klebsiella pneumoniae [14] = assay: Antibacterial activity against Klebsiella pneumoniae Kp7564 transconjugant harboring IncL/M plasmid and blaIMP-4-qacG2-aacA4-catB3 array by Etest method
Morganella morganii [15] = assay: Antibacterial activity against Morganella morganii isolate Mm1614 harboring IncL/M plasmid and blaIMP-4-qacG2-aacA4-catB3 array by Etest method
Serratia marcescens [16] = assay: Antibacterial activity against Serratia marcescens Sm2723 transconjugant harboring IncL/M plasmid and blaIMP-4-qacG2-aacA4-catB3 array by Etest method
Enterobacter cloacae [17] = assay: Antibacterial activity against Enterobacter cloacae El1573 transconjugant harboring IncL/M plasmid and blaIMP-4-qacG2-aacA4-catB3 array by Etest method
Citrobacter amalonaticus [18] = assay: Antibacterial activity against Citrobacter amalonaticus Ca38009 transconjugant harboring IncL/M plasmid and blaIMP-4-qacG2-aacA4-catB3 array by Etest method
Serratia marcescens [19] = assay: Antibacterial activity against Serratia marcescens isolate Sm201 harboring IncA/C plasmid and blaIMP-4-qacG2-aacA4-catB3 array by Etest method
Citrobacter youngae [20] = assay: Antibacterial activity against Citrobacter youngae isolate CyB38 harboring blaIMP-4-qacG2-aacA4-catB3 array by Etest method
Citrobacter amalonaticus [21] = assay: Antibacterial activity against Citrobacter amalonaticus isolate Ca3927 harboring IncL/M plasmid and blaIMP-4-qacG2-aacA4-catB3 array by Etest method
Klebsiella pneumoniae [22] = assay: Antibacterial activity against Klebsiella pneumoniae Kp38045 transconjugant harboring IncL/M plasmid and blaIMP-4-qacG2-aacA4-catB3 array by Etest method
Enterobacter cloacae [23] = assay: Antibacterial activity against Enterobacter cloacae isolate El1573 harboring IncL/M plasmid and blaIMP-4-qacG2-aacA4-catB3 array by Etest method
Enterobacter cloacae [24] = assay: Antibacterial activity against Enterobacter cloacae isolate El3280 harboring IncL/M plasmid and blaIMP-4-qacG2-aacA4-catB3 array by Etest method
Klebsiella oxytoca [25] = assay: Antibacterial activity against Klebsiella oxytoca isolate Ko1156 harboring IncL/M plasmid and blaIMP-4-qacG2-aacA4-catB3 array by Etest method
Klebsiella pneumoniae [26] = assay: Antibacterial activity against Klebsiella pneumoniae isolate Kp211 harboring IncA/C plasmid and blaIMP-4-qacG2-aacA4-catB3 array by Etest method
Escherichia coli [27] = assay: Antibacterial activity against Escherichia coli Ec9381 transconjugant harboring IncL/M plasmid and blaIMP-4-qacG2-aacA4-catB3 array by Etest method
Klebsiella pneumoniae [28] = assay: Antibacterial activity against Klebsiella pneumoniae Kp38009 transconjugant harboring IncL/M plasmid and blaIMP-4-qacG2-aacA4-catB3 array by Etest method
Enterobacter cloacae [29] = assay: Antibacterial activity against Enterobacter cloacae El3518 transconjugant harboring IncL/M plasmid and blaIMP-4-qacG2-aacA4-catB3 array by Etest method
Klebsiella pneumoniae [30] = assay: Antibacterial activity against Klebsiella pneumoniae Kp1239 transconjugant harboring IncL/M plasmid and blaIMP-4-qacG2-aacA4-catB3 array by Etest method
Morganella morganii [31] = assay: Antibacterial activity against Morganella morganii Mm38009 transconjugant harboring IncL/M plasmid and blaIMP-4-qacG2-aacA4-catB3 array by Etest method
Klebsiella pneumoniae [32] = assay: Antibacterial activity against Klebsiella pneumoniae isolate Kp38045 harboring IncL/M plasmid and blaIMP-4-qacG2-aacA4-catB3 array by Etest method
Serratia marcescens [33] = assay: Antibacterial activity against Serratia marcescens isolate Sm265 harboring IncA/C plasmid and blaIMP-4-qacG2-aacA4-catB3 array by Etest method
Morganella morganii [34] = assay: Antibacterial activity against Morganella morganii Mm1229 transconjugant harboring IncL/M plasmid and blaIMP-4-qacG2-aacA4-catB3 array by Etest method
Citrobacter amalonaticus [35] = assay: Antibacterial activity against Citrobacter amalonaticus isolate Ca38009 harboring IncL/M plasmid and blaIMP-4-qacG2-aacA4-catB3 array by Etest method
Citrobacter amalonaticus [36] = assay: Antibacterial activity against Citrobacter amalonaticus Ca3927 transconjugant harboring IncL/M plasmid and blaIMP-4-qacG2-aacA4-catB3 array by Etest method
Klebsiella pneumoniae [37] = assay: Antibacterial activity against Klebsiella pneumoniae isolate Kp1945 harboring IncL/M plasmid and blaIMP-4-qacG2-aacA4-catB3 and dfrA12-orfF-aadA2 arrays by Etest method

Compound	MIC (Klebsiella pneumoniae [14])	MIC (Morganella morganii [15])	MIC (Serratia marcescens [16])	MIC (Enterobacter cloacae [17])	MIC (Citrobacter amalonaticus [18])	MIC (Serratia marcescens [19])	MIC (Citrobacter youngae [20])	MIC (Citrobacter amalonaticus [21])	MIC (Klebsiella pneumoniae [22])	MIC (Enterobacter cloacae [23])	MIC (Enterobacter cloacae [24])	MIC (Klebsiella oxytoca [25])	MIC (Klebsiella pneumoniae [26])	MIC (Escherichia coli [27])	MIC (Klebsiella pneumoniae [28])	MIC (Enterobacter cloacae [29])	MIC (Klebsiella pneumoniae [30])	MIC (Morganella morganii [31])	MIC (Klebsiella pneumoniae [32])	MIC (Serratia marcescens [33])	also measured
CC1(C)S[C@@H]2[C@H](NC(=O)[C@H](N)c3ccc(O)cc3)C(=O)N2[C@H]1C(=O)O [AMOXICILLIN]																					MIC (Enterobacter cloacae [1]): > 16 µg/mL; MIC (Morganella morganii [2]): > 16 µg/mL; MIC (Enterobacter cloacae [3]): > 16 µg/mL; MIC (Acinetobacter): > 16 µg/mL; MIC (Enterobacter cloacae [4]): > 16 µg/mL; MIC (Klebsiella pneumoniae [5]): > 16 µg/mL; MIC (Citrobacter youngae [6]): > 16 µg/mL; MIC (Escherichia coli [7]): > 16 µg/mL; MIC (Klebsiella oxytoca [8]): > 16 µg/mL; MIC (Acinetobacter baumannii): > 16 µg/mL; MIC (Klebsiella pneumoniae [9]): > 16 µg/mL; MIC (Escherichia coli [10]): > 16 µg/mL; MIC (Serratia marcescens [11]): > 16 µg/mL; MIC (Klebsiella pneumoniae [12]): > 16 µg/mL; MIC (Klebsiella oxytoca [13]): > 16 µg/mL
C[C@@H](O)[C@H]1C(=O)N2C(C(=O)O)=C(SCCNC=N)C[C@H]12 [IMIPENEM ANHYDROUS]	2 µg/mL (≈ 6.68 µM)	8 µg/mL (≈ 26.7 µM)	2 µg/mL (≈ 6.68 µM)	2 µg/mL (≈ 6.68 µM)	2 µg/mL (≈ 6.68 µM)	8 µg/mL (≈ 26.7 µM)	8 µg/mL (≈ 26.7 µM)	2 µg/mL (≈ 6.68 µM)	2 µg/mL (≈ 6.68 µM)	8 µg/mL (≈ 26.7 µM)	3 µg/mL (≈ 10 µM)	0.75 µg/mL (≈ 2.51 µM)	2 µg/mL (≈ 6.68 µM)	≤ 1 µg/mL	≤ 1 µg/mL	2 µg/mL (≈ 6.68 µM)	2 µg/mL (≈ 6.68 µM)	2 µg/mL (≈ 6.68 µM)	0.75 µg/mL (≈ 2.51 µM)	> 8 µg/mL	MIC (Morganella morganii [34]): 2 µg/mL (≈ 6.68 µM); MIC (Citrobacter amalonaticus [35]): 1.5 µg/mL (≈ 5.01 µM); MIC (Citrobacter amalonaticus [36]): ≤ 1 µg/mL; MIC (Klebsiella pneumoniae [37]): 8 µg/mL (≈ 26.7 µM)
CO/N=C(\C(=O)N[C@@H]1C(=O)N2C(C(=O)O)=C(COC(C)=O)CS[C@H]12)c1csc(N)n1 [CEFOTAXIME]	32 µg/mL (≈ 70.3 µM)	32 µg/mL (≈ 70.3 µM)	16 µg/mL (≈ 35.1 µM)	16 µg/mL (≈ 35.1 µM)	16 µg/mL (≈ 35.1 µM)	> 32 µg/mL	> 32 µg/mL	> 32 µg/mL	32 µg/mL (≈ 70.3 µM)	> 32 µg/mL	> 32 µg/mL	32 µg/mL (≈ 70.3 µM)	> 32 µg/mL	32 µg/mL (≈ 70.3 µM)	32 µg/mL (≈ 70.3 µM)	32 µg/mL (≈ 70.3 µM)	32 µg/mL (≈ 70.3 µM)	32 µg/mL (≈ 70.3 µM)	32 µg/mL (≈ 70.3 µM)	> 32 µg/mL	MIC (Morganella morganii [34]): 32 µg/mL (≈ 70.3 µM); MIC (Citrobacter amalonaticus [35]): > 32 µg/mL; MIC (Citrobacter amalonaticus [36]): 32 µg/mL (≈ 70.3 µM); MIC (Klebsiella pneumoniae [37]): > 32 µg/mL
GENTAMICIN	> 8 µg/mL	> 8 µg/mL	> 8 µg/mL	> 8 µg/mL	> 8 µg/mL	> 8 µg/mL	> 8 µg/mL	> 8 µg/mL	> 8 µg/mL	> 8 µg/mL	> 8 µg/mL	> 8 µg/mL	> 8 µg/mL	> 8 µg/mL	> 8 µg/mL	> 8 µg/mL	> 8 µg/mL	> 8 µg/mL	> 8 µg/mL	8 µg/mL	MIC (Morganella morganii [34]): > 8 µg/mL; MIC (Citrobacter amalonaticus [35]): > 8 µg/mL; MIC (Citrobacter amalonaticus [36]): > 8 µg/mL; MIC (Klebsiella pneumoniae [37]): > 8 µg/mL
NC[C@H]1O[C@H](O[C@H]2[C@H](O)[C@@H](O[C@H]3O[C@H](CO)[C@@H](O)[C@H](N)[C@H]3O)[C@H](N)C[C@@H]2N)[C@H](N)C[C@@H]1O [TOBRAMYCIN]	8 µg/mL (≈ 17.1 µM)	> 8 µg/mL	8 µg/mL (≈ 17.1 µM)	8 µg/mL (≈ 17.1 µM)	8 µg/mL (≈ 17.1 µM)	> 8 µg/mL	> 8 µg/mL	> 8 µg/mL	8 µg/mL (≈ 17.1 µM)	> 8 µg/mL	> 8 µg/mL	> 8 µg/mL	8 µg/mL (≈ 17.1 µM)	8 µg/mL (≈ 17.1 µM)	8 µg/mL (≈ 17.1 µM)	> 8 µg/mL	8 µg/mL (≈ 17.1 µM)	8 µg/mL (≈ 17.1 µM)	8 µg/mL (≈ 17.1 µM)	> 8 µg/mL	MIC (Morganella morganii [34]): 8 µg/mL (≈ 17.1 µM); MIC (Citrobacter amalonaticus [35]): > 8 µg/mL; MIC (Citrobacter amalonaticus [36]): 8 µg/mL (≈ 17.1 µM); MIC (Klebsiella pneumoniae [37]): > 8 µg/mL
